Assay results: patent US20180235870A1, “TRANSDERMAL FORMULATIONS FOR DELIVERY OF BERBERINE COMPOUNDS, AND THEIR USE IN THE TREATMENT OF BERBERINE-RESPONSIVE DISEASES AND CONDITIONS” (DELIVRA INC., priority 2015, published 2018)
Entries after “also recorded” stand apart in the source; their conditions may differ.

Legend:
[1] = system: PCSK9 expression in HEPG2 cells; assay: Berberine signaling in HEPG2: PCSK9 western blot of supernatant; format: cell-based, human; settings: 24 hours; for expression of PCSK9 in supernatant (western blot): 25 to 3.125 ug/ml, versus negative control
Protocol: HEPG2 cells were cultured in 24 well plates to confluence in DMEM supplemented with 10% FBS. After reaching confluence, cells were incubated overnight with 0.1% FBS OPTIMEM for serum starvation. After serum starvation the cells were incubated with berberine, DHB, or THB in 0.1% FBS OPTIMEM using the following dose course: 25 ug/ml, 12.5 ug/ml 6.25 ug/ml 3.125 ug/ml for 24 hours. Supernatant was collected after stimulation and western blotted as follows:
(1) Resolved on 12.5% gel.
(3) Blocked with 3% BSA TBST (4) Rabbit anti PCSK9 (Cayman chemicals cat 10007185) at 1/600 in TTBS (5) Wash 3×5 min with TTBS (6) HRP-Goat anti-Rabbit 1/1000 (Cayman chemicals) (7) Wash 3×5 min with TTBS (8) Detection with ECL
Proprotein convertase subtilisin/kexin type 9 (PCSK9) post-transcriptionally downregulates the low-density lipoprotein receptor (LDLR) by binding to the receptor's epidermal growth factor repeat A on the cell surface and shuttling the LDLR to the lysosomes for degradation. […] Previous reports indicate that berberine has lipid lowering effects in both animal models and human trials (Arrigo F. G., Cicero, L., Rovati C. et al., 2007). The signalling effects of berberine, DHB, and THB were evaluated using the human liver cell line HEPG2. PCSK9, an enzyme that acts in cholesterol homeostasis, is expressed in HEPG2 cells and these cells have previously been used as a model of dyslipidemia. PCSK9 binds to LDL receptor causing uptake of LDL and the LDL receptor and targets both molecules for degradation upon internalization. In the absence of PCSK9, LDL and LDL receptor are still internalized, however, LDL receptor is not degraded but instead recycled to the cell surface resulting in more efficient uptake of circulating LDL.

[2] = Solubility testing of berberine and dihydroberberine using various solvents; format: physicochemical
Protocol: Solubility was determined in a step-wise procedure that involved attempting to dissolve the berberine/DHB in the solvents at relatively high concentrations. […] Then the expected solvent was added to the berberine/DHB. The container was sonicated at RT or at 40C for 30 minutes. The following solvents were tested to dissolve the DHB. Dimethyl sulfoxide (Reagent Grade; […] Lot #STB[…]), and Glycerol tributyrate (Sigma T8626; Lot #BCBQ […]). […] The solubility was visually checked and state of solubility was recorded.

[3] = Stability of synthetic derivatives DHB and THB in solution (UV/VIS); format: physicochemical; settings: for stability over time (oxidation to berberine): several solvents
Text: UV/VIS spectrometry is a useful tool for monitoring the conversion of DHB to berberine in solution. Several anti-oxidants and encapsulating agents were combined with DHB in solution to increase stability.

[4] = system: male Zucker rat, a model of type-2 diabetes and metabolic disorder; assay: Effect of berberine, metformin and simvastatin on body mass, lipid biomarkers, food and water intake, clinical chemistry (Example 18); format: in vivo, obese male Zucker fa/fa rats; settings: Zucker rats, Days 0 to 28
Protocol: All in vivo animal husbandry, treatment regiments, and sample collections were completed by InterVivo. The study was completed using obese male Zucker fa/fa rats (Charles River) at 10 weeks of age. […] Shaving was performed under anaesthesia one day prior to initiation of test article administration. The area was further shaven, as needed, over the course of the dosing period to ensure accurate drug application and absorption. For dosing procedures, animals were restrained and the transdermal test articles applied in a uniform layer over the entire shaved area. The shaved administration area was cleaned daily with paper towel before the subsequent transdermal dose was administered. Animals receiving test articles via oral gavage were restrained, and a ball-tipped gavage needle (18G) attached to a syringe containing the dosing solution was first inserted into the mouth, and then into the stomach. To determine the appropriate depth of insertion of the needle, the position corresponding to the last rib was measured prior to insertion. […] Group A), oral administration of berberine (180 mg/kg/dose; […] Group C), and oral administration of the vehicle (Group D) (Table 19). […] Group F), or with orally-administered metformin (200 mg/kg/dose; Group G). […] On Day 28, the animals were dosed in the morning only, prior to euthanasia and tissue collection. Animal body weights were performed once weekly from Day −34 to −2 and daily from Day −1 to 28. Rats were weighed, and the scales were operated and maintained, according to standard operating procedures. Food and water consumption measurements were taken over a 24 hour period, once weekly, from Days 0 to 28. Blood was collected via tail nick on Day-1 to determine unfasted blood glucose level for group allocation. Whole blood was collected via the saphenous vein or other appropriate route on Days 0, 7, 14, 21 and 28 immediately prior to test article administration. […] On Day 28, subjects were anaesthetized with isoflurane, and whole blood was collected via cardiac puncture 2.5 hours (+/−5 minutes) following treatment administration on this day. […]

[5] = system: male Zucker fa/fa rat, a model of type 2 diabetes and metabolic disorder; assay: Efficacy of transdermal berberine alone and in combination with pharmaceuticals in a model of metabolic syndrome (Example 19); format: in vivo, obese male Zucker fa/fa rats; settings: Zucker fa/fa rats
Protocol: Fourteen obese male Zucker fa/fa rats at 5 weeks of age were housed for five weeks to the age of 10 weeks. During these five weeks, body weight measurements were taken once a week and once daily health observations were conducted for all animals. […] On Day 28, serum and whole liver was collected. […] Food and water intake measurements were taken once a week during the study period of Day 0 to Day 28. […] A sufficient amount of test article was supplied and formulated. Test article product was administered at a dose of 3.6 g/kg twice a day (e.g. […] Berberine cream was weighed fresh daily at each AM and PM dosing to avoid desiccation of the test article. Daily PO and TD dosing of the test articles took place between the hours of 08:00 to 10:00 and 16:00 to 18:00 for 7 days a week between Day 0 to 27. […] The exact time of dosing (up to the minute) was recorded for each animal on the daily dosing sheets. […] Remaining dosing solutions were stored at 4° C. between dosing periods. […] The animals shaved underwemt gaseous anaesthetic according to SOP ROD28.01 to ensure accuracy and avoid undue stress of the animal. The area was further shaven as needed over the course of the dosing period to ensure accurate drug application and absorption. At dosing, the animals were restrained and the transdermal test articles were applied in a uniform layer over the entire shaved area. […] PTS3028).

[6] = Plasma concentrations of berberine, berberine glucuronide, simvastatin and simvastatin hydroxy acid in rats (Example 20); format: in vivo; settings: rats (n=2); oral simvastatin 6 mg/kg/dose
[7] = averaged over the entire experiment

In the case of `COc1ccc2c(c1OC)CN1CCc3cc4c(cc3C1=C2)OCO4` [DHB, dihydroberberine], the “concentration down to which expression of PCSK9 was reduced” value [1] is reported as 6.25 µg/mL, the “expression of PCSK9 in supernatant (western blot)” value [1] is reported as “down-regulate the expression of PCSK9; also recorded: reduce the expression of PCSK9” and the “Dissolving Capability” value ([2]; Acetone, sonication 40 C.) is reported as 25.0 mg/mL. The “Dissolving Capability” value ([2]; Acetone, sonication RT) was 12.5 mg/mL, the “Dissolving Capability” value ([2]; Dimethyl sulfoxide (DMSO), sonication 40 C.) was 50.0 mg/mL and the “Dissolving Capability” value ([2]; Dimethyl sulfoxide (DMSO), sonication RT) was 25.0 mg/mL. The “Dissolving Capability” value ([2]; Ethanol, sonication 40 C.) was 2.5 mg/mL, the “Dissolving Capability” value ([2]; Ethanol, sonication RT) was 1.0 mg/mL and the “Dissolving Capability” value ([2]; Glycerol tributyrate, sonication 40 C.) was 75 to 250 mg/mL. For the same compound, the “Dissolving Capability” value ([2]; Glycerol tributyrate, sonication RT) was 10 mg/mL, the “Dissolving Capability” value ([2]; Hexylene glycol, sonication 40 C.) was 1.0 mg/mL and the “Dissolving Capability” value ([2]; Hexylene glycol, sonication RT) was 0.5 mg/mL. The “Dissolving Capability” value ([2]; Isopropyl myristate, sonication 40 C.) was 75 to 250 mg/mL, the “Dissolving Capability” value ([2]; Isopropyl myristate, sonication RT) was 10 mg/mL and the “Dissolving Capability” value ([2]; Isosorbid-dimethyl ether 98%, sonication 40 C.) was 250 mg/mL. The “Dissolving Capability” value ([2]; Isosorbid-dimethyl ether 98%, sonication 40 C., listed as Dihydroberberine) was 250 mg/mL, the “Dissolving Capability” value ([2]; Isosorbid-dimethyl ether 98%, sonication RT) was 25.0 mg/mL and the “Dissolving Capability” value ([2]; Mineral oil, sonication 40 C.) was 4.0 mg/mL. For the same compound, the “Dissolving Capability” value ([2]; Mineral oil, sonication RT) was 2.0 mg/mL, the “Dissolving Capability” value ([2]; Oleyl alcohol, sonication 40 C., listed as Dihydroberberine) was 50 mg/mL and the “Dissolving Capability” value ([2]; Oleyl alcohol, sonication 40 C., listed as dihydroberberine) was 50.0 mg/mL. The “Dissolving Capability” value ([2]; Oleyl alcohol, sonication RT) was 12.5 mg/mL, the “Dissolving Capability” value ([2]; Propanediol, sonication 40 C.) was 2.5 mg/mL and the “Dissolving Capability” value ([2]; Propanediol, sonication RT) was 1.0 mg/mL. The “Dissolving Capability” value ([2]; Trivalin, sonication 40 C.) was 5.0 mg/mL, the “Dissolving Capability” value ([2]; Trivalin, sonication RT) was 2.5 mg/mL and the “Dissolving Capability” value ([2]; Water, sonication 40 C.) was 1.0 mg/mL. The “Dissolving Capability” value ([2]; Water, sonication RT) was 0.5 mg/mL, the “oxidation of DHB to berberine on addition of ascorbic acid or cyclodextrin” value ([3]; UV/VIS) was “significantly slowed” and the “stability over time (oxidation to berberine)” value [3] was “prone to oxidation to provide berberine after a short time”.

For `CN(C)C(=N)N=C(N)N` [Metformin], the “HbA1c (in words)” value [4] was “largest reduction in HbA1c”, the “rate of weight gain (grams/day)” value ([5]; BID, Day 0 to 28, n=2) was 3.3 grams/day and the “overall triglyceride levels (mmol/L+/−SEM)” value ([5]; averaged for the entire experiment) was 15.1 ± 0.4 mmol/L. For the same compound, the “overall HbA1c level change (mmol/mmol+/−SEM)” value [5, 7] was 34.3+/−0.4 mmol/mmol, the “overall average food intake (grams+/−SEM)” value [5, 7] was 33.4+/−0.7 grams and the “overall cholesterol level change (mmol/L+/−SEM)” value [5, 7] was 5.0 ± 0.4 mmol/L. The “overall average glucose change (%+/−SEM)” value ([5]; non-fasting glucose, averaged over the entire experiment) was 5.9+/−5.9%.

`CCC(C)(C)C(=O)O[C@H]1C[C@@H](C)C=C2C=C[C@H](C)[C@H](CC[C@@H]3C[C@@H](O)CC(=O)O3)[C@H]21` [Simvastatin] showed a systemic simvastatin concentration [6] of 1.83 ng/mL.

With `COc1ccc2c(c1OC)CN1CCc3cc4c(cc3C1C2)OCO4` (stereo not shown) [THB, tetrahydroberberine] the “expression of PCSK9 in supernatant (western blot)” value [1] was “did not affect expression of PCSK9; also recorded: did not appear to reduce expression of PCSK9” and the “stability over time (oxidation to berberine)” value [3] was “excellent stability in several solvents”.
